From ChEMBL document CHEMBL5150065, “Design, synthesis, and bioevaluation of imidazo [1,2-a] pyrazine derivatives as tubulin polymerization inhibitors with potent anticancer activities” (Bioorg Med Chem, 2022)

Legend:
HCT-116 [1] = assay: Antiproliferative activity against human HCT-116 cells assessed as inhibition of cell growth incubated for 48 hrs by MTT assay; type: functional, cell-based; conditions: HCT-116, 48 h
MDA-MB-231 = assay: Antiproliferative activity against human MDA-MB-231 cells assessed as inhibition of cell growth incubated for 48 hrs by MTT assay; type: functional, cell-based; conditions: MDA-MB-231, 48 h
A549 = assay: Antiproliferative activity against human A549 cells assessed as inhibition of cell growth incubated for 48 hrs by MTT assay; type: functional, cell-based; conditions: A549, 48 h
HepG2 = assay: Antiproliferative activity against human HepG2 cells assessed as inhibition of cell growth incubated for 48 hrs by MTT assay; type: functional, cell-based; conditions: HepG2, 48 h
HCT-116 [2] = assay: Induction of cell cycle arrest in human HCT-116 cells assessed as increase in G2/M phase cells at 20 nM measured after 48 hrs by propidium iodide/RNase staining based flow cytometry analysis (reference value: […] %); type: functional
HCT-116 [3] = assay: Induction of cell cycle arrest in human HCT-116 cells assessed as S phase cells at 20 nM measured after 48 hrs by propidium iodide/RNase staining based flow cytometry analysis (reference value: […] %); type: functional
HCT-116 [4] = assay: Induction of cell cycle arrest in human HCT-116 cells assessed as G1 phase cells at 20 nM measured after 48 hrs by propidium iodide/RNase staining based flow cytometry analysis (reference value: 61.51 %); type: functional

COc1cc(C(=O)c2cn3cc(Br)nc(Cl)c3n2)cc(OC)c1OC gave an IC50 (HCT-116 [1]) of 1620 nM, an IC50 (MDA-MB-231) of 6760 nM and an IC50 (A549) of 8260 nM. The IC50 (HepG2) was 5120 nM.

In the case of COc1cc(C(=O)c2cn3ccnc(-c4ccccc4)c3n2)cc(OC)c1OC, the IC50 (HCT-116 [1]) is reported as 1940 nM, the IC50 (MDA-MB-231) is reported as over 10000 nM and the IC50 (A549) is reported as 3940 nM. It also gave an IC50 (HepG2) of over 10000 nM.

Molecule COc1cc(C(=O)c2cn3cc(Cl)cc(C(F)(F)F)c3n2)cc(OC)c1OC has an IC50 (HCT-116 [1]) of over 10000 nM, an IC50 (MDA-MB-231) of over 10000 nM and an IC50 (A549) of over 10000 nM. The IC50 (HepG2) was over 10000 nM.

For COc1cc(C(=O)c2cn3ccc(F)cc3n2)cc(OC)c1OC, the IC50 (HCT-116 [1]) was over 10000 nM, the IC50 (MDA-MB-231) was over 10000 nM and the IC50 (A549) was over 10000 nM. The IC50 (HepG2) was over 10000 nM.

COc1cc(-c2nccn3cc(-c4ccccc4)nc23)cc(OC)c1OC gave an IC50 (HCT-116 [1]) of 266 nM, an IC50 (MDA-MB-231) of 364 nM and an IC50 (A549) of 378 nM. It also gave an IC50 (HepG2) of 267 nM.

For COc1cc(-c2nccn3cc(-c4ccc(Cl)cc4)nc23)cc(OC)c1OC, the IC50 (HCT-116 [1]) was 351 nM, the IC50 (MDA-MB-231) was 2090 nM and the IC50 (A549) was 7290 nM. It also gave an IC50 (HepG2) of 475 nM.

Molecule COc1cc(-c2nccn3cc(-c4ccc(C(F)(F)F)cc4)nc23)cc(OC)c1OC has an IC50 (HCT-116 [1]) of over 10000 nM, an IC50 (MDA-MB-231) of over 10000 nM and an IC50 (A549) of over 10000 nM. For the same molecule, the IC50 (HepG2) was 2630 nM.

For COc1ccc(-c2cn3ccnc(-c4cc(OC)c(OC)c(OC)c4)c3n2)cc1O, the IC50 (HCT-116 [1]) was 74 nM, the IC50 (MDA-MB-231) was over 10000 nM and the IC50 (A549) was over 10000 nM. For the same molecule, the IC50 (HepG2) was 87 nM.

In the case of COc1cc2c(c(OC)c1OC)-c1ccc(OC)c(=O)cc1[C@@H](NC(C)=O)CC2 [COLCHICINE], the Activity (HCT-116 [2]) is reported as 60.81%, the IC50 (HCT-116 [1]) is reported as 11 nM and the Activity (HCT-116 [3]) is reported as 15.12%. It also gave an Activity (HCT-116 [4]) of 24.07%, an IC50 (MDA-MB-231) of 176 nM and an IC50 (A549) of 184 nM. The IC50 (HepG2) was 54 nM.

With COc1cc(C(=O)c2cn3ccnc(-c4ccc5[nH]ccc5c4)c3n2)cc(OC)c1OC the IC50 (HCT-116 [1]) was 689 nM, the IC50 (MDA-MB-231) was over 10000 nM and the IC50 (A549) was over 10000 nM. For the same molecule, the IC50 (HepG2) was over 10000 nM.

In the case of COc1ccn2cc(C(=O)c3cc(OC)c(OC)c(OC)c3)nc2c1, the IC50 (HCT-116 [1]) is reported as 6520 nM, the IC50 (MDA-MB-231) is reported as over 10000 nM and the IC50 (A549) is reported as over 10000 nM. For the same molecule, the IC50 (HepG2) was 4140 nM.

With COc1cc(C(=O)c2cn3c(C(C)C)cccc3n2)cc(OC)c1OC the IC50 (HCT-116 [1]) was over 10000 nM, the IC50 (MDA-MB-231) was over 10000 nM and the IC50 (A549) was over 10000 nM. For the same molecule, the IC50 (HepG2) was over 10000 nM.

With COc1ccc(-c2cn3ccnc(-c4cc(OC)c(OC)c(OC)c4)c3n2)cc1 the IC50 (HCT-116 [1]) was 191 nM, the IC50 (MDA-MB-231) was 105 nM and the IC50 (A549) was 457 nM. It also gave an IC50 (HepG2) of 205 nM.
